Measured values as given in US20080039531A1, “Compositions, and kits comprising targeted aldehyde or acetal protease inhibitor compounds for treating muscle disorders” (priority 2005, published 2008).

What was measured:
MDX mice = assay: MDX mouse study: myofiber diameter after intramuscular leupeptin; type: in vivo; conditions: for Myofiber diameter, Anterior tibialis / Myofiber diameter, Diaphragm / Myofiber diameter, Gastrocnemius / Myofiber diameter, Soleus: mdx mice, ± SD
Experimental: It is well documented that as, observed in DMD and BMD, dystrophin is dysfunctional/absent in the murine MDX model of muscular dystrophy. […] A series of studies to test the ability of the calpain inhibitor, leupeptin, to delay and/or prevent features of calcium-induced damage to dystrophic myofibers was initiated. Control C57BL/10SNJ mice were treated with intramuscular injections of normal saline. The MDX mice were treated intramuscularly with either normal saline or 12 mg/kg leupeptin or 18 mg/kg leupeptin twice daily. All injections were delivered in the hind-limbs in various locations to avoid muscle damage due to repeated injections at the same location. The gastrocnemius, soleus, anterior tibialis, and diaphragm muscles were examined in all animals.

[1] = Monkey study, intramuscular leupeptin: toxicology and echocardiograms; type: in vivo, Cebus apella
Experimental: (§1) In order to test the hypothesis that in vivo inhibition of calpains by leupeptin can facilitate neuromuscular recovery by inhibiting denervation atrophy of the skeletal-muscle target after complete peripheral nerve transection and delayed nerve repair (7), a monkey study (Cebus apella) was undertaken. This median-nerve model was chosen to approximate human anatomic and regenerative aspects.
Complete blood counts and clotting times after intramuscular leupeptin administration at 18 mg/kg, twice daily for 24 weeks, were not affected in treated animals, when compared to controls. In controls, mean values were as follows: WBC=4.83±1.04×10^3; RBC=5.34±0.34×10^6; hematocrit=37.97%±2.09; platelets=3.30±0.05×10^5; prothrombin time=9.68±0.36 sec; partial thromboplastin time=28.78±1.32 sec. In treated animals, mean values were: WBC=6.67±2.26×10^3; RBC=5.55±0.26×10^6; hematocrit=38.18%+1.69; platelets 4.33±0.18×10^5; prothrombin time=10.88±0.49 sec; partial thromboplastin time=33.06±0.76 sec.
Echocardiograms: To assure that leupeptin was causing no pathological effects on heart muscle, the cardiac lateral wall and septum were measured in millimeters in all animals prior to leupeptin treatment and 25 weeks after delayed nerve repair. Prior to treatment, in animals designated as controls, the lateral wall was 2.88±0.33 mm and the septum was 2.84±0.2 mm. Twenty-five weeks later in control animals, the lateral wall was 3.0±0.5 mm and the septum was 2.9±0.2 mm. Prior to treatment, in animals designated to receive leupeptin, the lateral wall was 3.5±0.2 mm and the septum was 2.9±0.4 mm. Twenty-five weeks later, in leupeptin-treated animals, the lateral wall was 3.2±0.1 mm and the septum was 2.8±0.3 mm. Importantly, there were no significant statistical differences within either the control or treatment groups or between the control and treatment groups (data not shown).

[2] = tested on: opponens and abductor myofibers; assay: Monkey study, intramuscular leupeptin: muscle morphology after delayed median nerve repair; type: in vivo, Cebus apella
From the text: as §1

Calpain [3] = assay: Monkey study, intramuscular leupeptin: muscle calpain activities; type: in vivo, Cebus apella; conditions: right, nerve-repaired opponens and abductor muscles, 12 and 24 weeks
From the text: as §1

[4] = tested on: opponens pollicis and abductor pollicis myofibers; assay: Monkey study, oral leupeptin: myofiber diameter after median nerve repair; type: in vivo, monkeys; conditions: for percentage atrophy: loss of myofiber diameter vs left, unoperated control group: 3 months post nerve repair
Experimental: Subsequent to the above studies another series of experiments were performed on the monkeys to assess another route of leupeptin administration in these animals (8). In this regard, oral delivery of leupeptin, after median nerve transection and epineural nerve repair, was studied for its potential benefits to neuromuscular recovery. […] When plasma leupeptin concentrations were 3 mg or greater, morphologic and functional motor recovery were facilitated after nerve repair.
When expressed as a percentage atrophy, in comparison to the left, unoperated control group, the right control group lost 63 percent of its myofiber diameter; the 3-mg group lost 53% of its myofiber diameter; the 6-mg group 23%; the 12-mg group 11%; and the 18-mg group only 8%.

Calpain [5] = assay: Monkey study, oral leupeptin: muscle calpain activities; type: in vivo, monkeys
From the text: However, the trend in activities, as was expected, when comparing control, left muscle to right, denervated, leupeptin-treated muscle, was an overall decrease in calpain activity after leupeptin treatment. The mean decrease in calpain activity in the right opponens pollicis muscles of leupeptin treated animals was 30%. The mean decrease in calpain activity in the right abductor pollicis muscles of leupeptin-treated animals was 24%.

calpain [6] = conditions: rats, IP, muscle isolated after 2 hours
Experimental: An initial series of toxicology experiments was performed in rats to assess the effect of CLA at various doses, on animal viability. […] A series of experiments to examine the ability of CLA vs. leupeptin to decrease activated calpain levels and inhibit muscle wasting was conducted. In the experiment shown in Table 4, rats were utilized to assess the effect of IP injection of either leupeptin or CLA into the hind limb muscle on their ability to inhibit calpain activity. To this end, four rats were injected IP with either leupeptin or CLA. After 2 hours, the muscle was isolated, homogenized, and assayed for remaining calpain activity by the standard assay.

[7] = 12 mg/kg leupeptin intramuscularly twice daily
[8] = 18 mg/kg leupeptin intramuscularly twice daily
[9] = leupeptin-treated monkeys, twenty-five weeks after delayed nerve repair
[10] = monkeys, intramuscular leupeptin 18 mg/kg twice daily for 24 weeks
[11] = left, unoperated hand of leupeptin treated monkeys, 24 weeks

## CC(=O)N[C@@H](CC(C)C)C(=O)N[C@@H](CC(C)C)C(=O)N[C@H](C=O)CCCNC(=N)N [Leupeptin]
MDX mice; anterior tibialis, 12 mg/kg
  increase in myofiber diameter vs untreated MDX muscle: 35%
MDX mice; anterior tibialis, 18 mg/kg
  increase in myofiber diameter vs untreated MDX muscle: 36%
MDX mice; diaphragm, 12 mg/kg
  increase in myofiber diameter vs untreated MDX muscle: 25%
MDX mice; diaphragm, 18 mg/kg
  increase in myofiber diameter vs untreated MDX muscle: 25%
MDX mice; gastrocnemius, 12 mg/kg
  increase in myofiber diameter vs untreated MDX muscle: 37%
MDX mice; gastrocnemius, 18 mg/kg
  increase in myofiber diameter vs untreated MDX muscle: 39%
MDX mice; [7]
  Myofiber diameter, Anterior tibialis: 37.5 ± 2.8 µm
  Myofiber diameter, Diaphragm: 21.8 ± 0.9 µm
  Myofiber diameter, Gastrocnemius: 32.9 ± 2.6 µm
  Myofiber diameter, Soleus: 24.7 ± 1.8 µm
MDX mice; [8]
  Myofiber diameter, Anterior tibialis: 38.3 ± 1.3 µm
  Myofiber diameter, Diaphragm: 21.7 ± 1.8 µm
  Myofiber diameter, Gastrocnemius: 34 ± 2.7 µm
  Myofiber diameter, Soleus: 25.5 ± 2.3 µm
MDX mice; soleus, 12 mg/kg
  increase in myofiber diameter vs untreated MDX muscle: 22%
MDX mice; soleus, 18 mg/kg
  increase in myofiber diameter vs untreated MDX muscle: 25%
[1]; [9]
  cardiac lateral wall (echocardiogram): 3.2±0.1 mm
  cardiac septum (echocardiogram): 2.8±0.3 mm
[1]; [10]
  RBC: 5.55±0.26×10^6
  WBC: 6.67±2.26×10^3
  blood chemistry analyses, treated vs control: no significant differences between treated and control animals
  hematocrit: 38.18%
  partial thromboplastin time: 33.06 ± 0.76 s
  platelets: 4.33±0.18×10^5
  prothrombin time: 10.88 ± 0.49 s
[2]; [11]
  mean myofiber diameter, abductor: 40.43±2.23 μm
  mean myofiber diameter, opponens: 43.25±4.26 μm
[2]; right, nerve-repaired hand, opponens and abductor, 12 and 24 weeks (FIG. 3)
  myofiber diameter vs control animals: statistically significant increase
Calpain [3]
  mean increase of calpain activities in control animals compared to leupeptin treated animals: 50%
[4]; left abductor pollicis, 6 months, 6-mg, 12-mg, 18-mg groups, p<0.01 (FIG. 5)
  mean myofiber diameter vs left control group: small but significant increase
[4]; right abductor pollicis, 6 months after nerve repair, 6-mg, 12-mg, 18-mg groups, p<0.01 (FIG. 5)
  mean myofiber diameter vs right control group: significant increase
[4]; right abductor pollicis, 6 months after nerve repair, oral leupeptin 3-mg group
  percent atrophy: loss of myofiber diameter vs left, unoperated abductor pollicis: 30%
[4]; right abductor pollicis, 6 months after nerve repair, oral leupeptin 6-mg group
  percent atrophy: loss of myofiber diameter vs left, unoperated abductor pollicis: 5%
[4]; right abductor pollicis, 6 months after nerve repair, oral leupeptin 12-mg group
  increase in myofiber diameter (no atrophy) vs left, unoperated abductor pollicis: 1.2%
[4]; right abductor pollicis, 6 months after nerve repair, oral leupeptin 18-mg group
  increase in myofiber diameter (no atrophy) vs left, unoperated abductor pollicis: 1.3%
[4]; right opponens pollicis, 3 months after nerve repair, all leupeptin treatment groups, p<0.01 (FIG. 4)
  mean myofiber diameter vs right control group: significant increase
[4]; right opponens pollicis, oral leupeptin 3-mg group
  percentage atrophy: loss of myofiber diameter vs left, unoperated control group: 53%
[4]; right opponens pollicis, oral leupeptin 6-mg group
  percentage atrophy: loss of myofiber diameter vs left, unoperated control group: 23%
[4]; right opponens pollicis, oral leupeptin 12-mg group
  percentage atrophy: loss of myofiber diameter vs left, unoperated control group: 11%
[4]; right opponens pollicis, oral leupeptin 18-mg group
  percentage atrophy: loss of myofiber diameter vs left, unoperated control group: 8%
Calpain [5]; right abductor pollicis muscles of oral leupeptin-treated monkeys
  mean decrease in calpain activity: 24%
Calpain [5]; right opponens pollicis muscles of oral leupeptin treated monkeys
  mean decrease in calpain activity: 30%
Calpain [6]; 75 μmoles
  % inhibition of muscle calpain activity: 20%
Calpain [6]
  % inhibition/μmole: 0.26%
  Fold (effectiveness per μmole relative to leupeptin): 1
